In patent US4678799A, “1,2(1,4)-dimethyl-4(2)-(2-hydroxyethyl)-5-nitro-imidazole antiprotozoal agents with reduced mutagenicity” (Merck & Co., Inc., priority 1984, dated 1987):
Values after ≈ are worked out from the molar mass of the structure shown. Read-outs that look alike come from different tables or passages of the source.

Key:
T. vaginalis = experiment: In vitro antiprotozoal activity against T. vaginalis; format: cell-based; conditions: Trichomonas vaginalis, read-out: Activity IC50 T. vaginalis
Source text: (§1) Several 5-nitroimidazoles have been tested for in vitro antiprotozoal activity against T. foetus, T. vaginalis, and G. lamblia.

G. lamblia = experiment: In vitro antiprotozoal activity against G. lamblia; format: cell-based; conditions: Giardia duodenalis, read-out: Activity IC50 G. lamblia
Source text: as §1

Mammalian rat hepatocyte = experiment: DNA single strand breaks in mammalian rat hepatocytes (genotoxicity); conditions: % relative to parent compound not containing 4-substituent
Source text: as §1
^b Mammalian rat hepatocyte single strand DNA breaks expressed as %
relative to parent compound not containing 4substituent.

T. foetus = experiment: In vitro antiprotozoal activity against T. foetus; format: cell-based; conditions: Tritrichomonas foetus, read-out: Activity IC50 T. foetus
Source text: as §1

[1] = background; cited from earlier work
[2] = background; cited from earlier work; remark: listed apart in the source
protozoa and bacteria = conditions: U.S. Pat. No. 3,646,027; cited from earlier work

IC50 (T. vaginalis; in vitro, T. vaginalis)	IC50 (G. lamblia; in vitro, G. lamblia)	IC50 (T. foetus; in vitro, T. foetus)	Compound	Extent of DNA Damage (Mammalian rat hepatocyte)	IC50 (T. vaginalis)	IC50 (G. lamblia)	mutagenicity [1]	drug residual levels [2]	activity against protozoa and bacteria (protozoa and bacteria)	IC50 (T. foetus)
1.9 µg/mL (≈ 8.87 µM)	25 µg/mL (≈ 117 µM)	1 µg/mL (≈ 4.67 µM)	Cc1nc(COC(N)=O)n(C)c1[N+](=O)[O-] [III, (1,4-Dimethyl-5-nitroimidazol-2-yl)methylcarbamate]	6%						
12.5 µg/mL (≈ 67.5 µM)	25 µg/mL (≈ 135 µM)	1.9 µg/mL (≈ 10.3 µM)	Cc1nc(CCO)n(C)c1[N+](=O)[O-] [IV, 1,4-Dimethyl-2-(2-hydroxyethyl)-5-nitroimidazole]							

More lines, now with the values behind:

Compound	IC50 (T. vaginalis; in vitro, T. vaginalis)	IC50 (G. lamblia; in vitro, G. lamblia)	IC50 (T. foetus; in vitro, T. foetus)	Extent of DNA Damage (Mammalian rat hepatocyte)	IC50 (T. vaginalis)	IC50 (G. lamblia)	mutagenicity [1]	drug residual levels [2]	activity against protozoa and bacteria (protozoa and bacteria)	IC50 (T. foetus)
Cn1c([N+](=O)[O-])cnc1COC(N)=O [I]				100%	0.54 µg/mL (≈ 2.7 µM)	0.9 µg/mL (≈ 4.5 µM)	strong mutagenicity	high drug residual levels	potent	0.42 µg/mL (≈ 2.1 µM)
Cc1ncc([N+](=O)[O-])n1CCO [II]	0.58 µg/mL (≈ 3.39 µM)	2 µg/mL (≈ 11.7 µM)	0.43 µg/mL (≈ 2.51 µM)	100%						
Cc1nc(CCO)c([N+](=O)[O-])n1C [Compound V]	9 µg/mL (≈ 48.6 µM)	25 µg/mL (≈ 135 µM)	5.25 µg/mL (≈ 28.4 µM)							
